{"source": "paper PMC9944867", "about": "“Mechanistic in vitro studies indicate that the clinical drug–drug interactions between protease inhibitors and rosuvastatin are driven by inhibition of intestinal BCRP and hepatic OATP1B1 with minimal contribution from OATP1B3, NTCP and OAT3” (Pharmacology Research & Perspectives, 2023)", "key": {"[1]": {"target": "T1, BCRP (Homo sapiens, UniProt Q9UNQ0)", "T1 sequence (Q9UNQ0 1-655)": "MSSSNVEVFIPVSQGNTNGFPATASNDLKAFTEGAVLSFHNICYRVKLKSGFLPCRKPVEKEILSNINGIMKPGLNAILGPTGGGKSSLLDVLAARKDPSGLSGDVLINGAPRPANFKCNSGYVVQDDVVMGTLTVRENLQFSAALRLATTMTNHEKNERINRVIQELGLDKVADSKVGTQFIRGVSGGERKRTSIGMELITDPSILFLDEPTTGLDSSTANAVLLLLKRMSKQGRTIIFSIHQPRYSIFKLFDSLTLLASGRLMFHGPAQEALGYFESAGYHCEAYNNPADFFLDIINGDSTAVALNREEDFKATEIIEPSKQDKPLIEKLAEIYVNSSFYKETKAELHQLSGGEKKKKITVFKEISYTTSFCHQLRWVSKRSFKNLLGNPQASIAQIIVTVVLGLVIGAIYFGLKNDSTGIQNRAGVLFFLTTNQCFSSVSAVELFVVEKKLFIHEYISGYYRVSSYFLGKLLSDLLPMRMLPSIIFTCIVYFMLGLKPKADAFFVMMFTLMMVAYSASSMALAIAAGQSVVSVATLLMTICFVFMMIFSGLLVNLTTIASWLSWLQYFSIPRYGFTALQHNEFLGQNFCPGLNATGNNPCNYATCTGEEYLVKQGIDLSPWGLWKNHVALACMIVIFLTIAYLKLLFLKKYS", "assay": "Caco-2 unidirectional (B-A) BCRP inhibition assay, [3H]-estrone 3-sulfate transport (IC50 determination)", "description": "The methodology used was adapted from the previously validated Caco‐2 unidirectional (basolateral to apical; B‐A) BCRP inhibition assay.[13]\nThe BCRP inhibition experiments were performed between day 18 to 22 post‐seeding. […] After pre‐incubation, transport buffer was removed and the appropriate donor solutions were added to the basolateral donor compartment. […] Receiver solutions (final DMSO concentration of ≤1 % v/v) in transport buffer containing either the corresponding concentration of test inhibitor or DMSO (vehicle control), and the fluorescent cell monolayer integrity marker lucifer yellow (100 μM), were added to the apical compartments (total volume = 90 μL). Incubations were conducted in triplicate wells per assay condition in a heated incubator at 37°C for 90 min. Following the incubation, the amount (pmol) of [^3H]‐estrone 3‐sulfate appearing in the receiver compartment was determined by sampling (50 μL) into a white walled clear bottomed multiwell plate, to which scintillation fluid (200 μL) was added, and then samples counted on a Microbeta2 liquid scintillation counter (PerkinElmer). The quantified amount (derived from disintegrations per minute; DPM) of [^3H]‐estrone 3‐sulfate was subsequently converted to concentration (pmol/mL) and used to calculate apparent permeability (Papp), as described previously.[18]"}, "[2]": {"target": "T2, human OATP1B1 (SLCO1B1) (Homo sapiens, UniProt Q9Y6L6)", "T2 sequence (Q9Y6L6 1-691)": "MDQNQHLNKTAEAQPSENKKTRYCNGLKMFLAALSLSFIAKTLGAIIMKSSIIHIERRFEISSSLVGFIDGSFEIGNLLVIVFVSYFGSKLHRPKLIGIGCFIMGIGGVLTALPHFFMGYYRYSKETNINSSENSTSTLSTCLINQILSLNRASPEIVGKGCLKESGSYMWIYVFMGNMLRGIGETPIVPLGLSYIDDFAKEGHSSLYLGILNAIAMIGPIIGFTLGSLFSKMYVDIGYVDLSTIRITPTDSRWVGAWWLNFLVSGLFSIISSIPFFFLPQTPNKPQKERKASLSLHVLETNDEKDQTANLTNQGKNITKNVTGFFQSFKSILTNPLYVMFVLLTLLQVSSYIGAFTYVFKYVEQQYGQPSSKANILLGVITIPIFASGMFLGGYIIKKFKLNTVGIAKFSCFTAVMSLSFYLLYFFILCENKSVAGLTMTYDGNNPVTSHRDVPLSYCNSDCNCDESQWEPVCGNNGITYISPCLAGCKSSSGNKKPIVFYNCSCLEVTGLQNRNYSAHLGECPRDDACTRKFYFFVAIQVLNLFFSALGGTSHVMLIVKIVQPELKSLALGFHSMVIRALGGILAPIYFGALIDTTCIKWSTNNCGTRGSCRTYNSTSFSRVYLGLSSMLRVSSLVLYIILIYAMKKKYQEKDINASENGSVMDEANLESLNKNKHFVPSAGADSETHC", "assay": "OATP1B1 inhibition in transporter-expressing HEK293 cells, [3H]-estradiol 17β-D-glucuronide uptake (IC50 determination)", "conditions": "OATP1B1-mediated transport of [3H]-estradiol 17β-D-glucuronide (0.02 μM), HEK293", "description": "(§1) OATP1B1, OATP1B3, NTCP and vector control cell lines were cultured and subsequent transporter assays conducted as described above using the same transporter‐specific probe substrates and incubation times. For OATP1B1, the probe substrate was [^3H]‐estradiol 17β‐D‐glucuronide (0.02 μM) incubated for 2 min, with rifamycin SV (100 μM) as positive control inhibitor. For IC50 determinations, the only difference to the method performed above was that the 15‐min pre‐incubation step contained a range of six concentrations of protease inhibitor drug, and subsequent incubations were conducted with the same six concentration levels of drug rather than with a single concentration."}, "[3]": {"target": "T3, human NTCP (SLC10A1) (Homo sapiens, UniProt Q14973)", "T3 construct": "host or cells: HEK293 TransportoCells", "T3 sequence (Q14973 1-349)": "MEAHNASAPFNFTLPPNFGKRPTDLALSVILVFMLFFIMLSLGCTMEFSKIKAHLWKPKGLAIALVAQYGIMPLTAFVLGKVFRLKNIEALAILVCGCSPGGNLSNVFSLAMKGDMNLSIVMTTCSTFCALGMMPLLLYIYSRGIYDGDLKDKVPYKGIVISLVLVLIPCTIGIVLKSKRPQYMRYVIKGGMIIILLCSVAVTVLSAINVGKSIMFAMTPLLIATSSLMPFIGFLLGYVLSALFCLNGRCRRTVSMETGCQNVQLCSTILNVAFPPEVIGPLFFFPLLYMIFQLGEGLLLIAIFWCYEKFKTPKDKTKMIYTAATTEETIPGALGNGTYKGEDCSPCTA", "assay": "NTCP single concentration inhibition screen in HEK293 cells", "type": "cell-based", "conditions": "≥10x [Iin max u]: atazanavir 50 μM, darunavir 15 μM, lopinavir 5 μM, ritonavir 0.3 μM; [3H]-taurocholic acid 1 μM"}, "[4]": {"conditions": "human, in vivo"}, "[5]": {"conditions": "read-out: [Cmax] mean steady-state maximum plasma concentration, total drug, cited from earlier work"}, "[6]": {"tested_on": "OAT3", "set-up": "method as in Yoshida et al.[32]", "conditions": "up to 10 μM; ref Yoshida et al.[32]; cited from earlier work"}, "[7]": {"assay": "Pharmacokinetic parameters of protease inhibitors in clinical interaction studies with rosuvastatin", "conditions": "calculated, clinical dose of Table 5"}, "[8]": {"tested_on": "BCRP", "set-up": "method as in PMID 21612343", "conditions": "ref [17]; cited from earlier work"}, "[9]": {"target": "T4, OAT3 (Homo sapiens, UniProt Q8TCC7)", "T4 construct": "host or cells: HEK293 TransportoCells", "T4 sequence (Q8TCC7 1-542)": "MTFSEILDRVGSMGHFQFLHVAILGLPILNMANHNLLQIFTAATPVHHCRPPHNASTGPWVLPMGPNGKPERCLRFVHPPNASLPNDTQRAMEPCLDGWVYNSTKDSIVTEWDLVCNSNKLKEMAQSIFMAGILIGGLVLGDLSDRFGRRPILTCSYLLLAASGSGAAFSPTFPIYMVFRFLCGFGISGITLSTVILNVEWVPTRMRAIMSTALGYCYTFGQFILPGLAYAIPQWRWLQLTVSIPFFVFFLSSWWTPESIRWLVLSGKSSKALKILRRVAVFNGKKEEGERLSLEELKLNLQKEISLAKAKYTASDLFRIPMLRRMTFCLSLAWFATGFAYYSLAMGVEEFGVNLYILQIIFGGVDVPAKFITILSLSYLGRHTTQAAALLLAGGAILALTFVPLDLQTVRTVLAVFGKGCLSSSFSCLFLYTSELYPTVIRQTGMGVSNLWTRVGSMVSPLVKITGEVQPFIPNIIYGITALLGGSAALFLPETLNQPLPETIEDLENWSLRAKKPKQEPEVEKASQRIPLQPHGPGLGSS", "assay": "OAT3 single concentration inhibition screen in HEK293 cells", "type": "cell-based", "conditions": "human, HEK293 cells expressing OAT3 (with vector control cells), pH 7.4, probe [3H]-estrone 3-sulfate (1 μM); probenecid 300 μM; single concentration screens; read-out: Inhibition of OAT3 by positive control (mean), screen"}, "[10]": {"target": "T5, OATP1B1 (Homo sapiens, UniProt Q9Y6L6)", "T5 sequence (Q9Y6L6 1-691)": "T2 sequence (Q9Y6L6 1-691)", "assay": "OATP1B1 inhibition in transporter-expressing HEK293 cells, [3H]-estradiol 17β-D-glucuronide uptake (IC50 determination)", "conditions": "human, HEK293 cells expressing OATP1B1 (with vector control cells), pH 7.4, probe [3H]-estradiol 17β-D-glucuronide (0.02 μM)", "description": "as §1"}, "[11]": {"target": "T6, human OAT3 (SLC22A8) (Homo sapiens, UniProt Q8TCC7)", "T6 construct": "host or cells: HEK293 TransportoCells", "T6 sequence (Q8TCC7 1-542)": "T4 sequence (Q8TCC7 1-542)", "assay": "OAT3 single concentration inhibition screen in HEK293 cells", "type": "cell-based", "conditions": "≥10x unbound [Cmax]: atazanavir 15 μM, darunavir 10 μM, lopinavir 3 μM, ritonavir 0.1 μM; probe 1 μM"}, "[12]": {"conditions": "cited from earlier work"}}, "note": "Where “and” joins values, the source holds several entries; their conditions need not be identical. Equal entries are not always repeated. Entries after “also recorded” stand apart in the source; their conditions may differ. Structures can show the parent of a compound that is named as a salt. Where two headings read alike, the source gives them in different places. Marks after values point to notes of the source that are not given here.", "data": [{"compound": "CC(C)CN(C[C@@H](O)[C@H](Cc1ccccc1)NC(=O)O[C@H]1CO[C@H]2OCC[C@H]21)S(=O)(=O)c1ccc(N)cc1", "note": "[darunavir]", "values": [{"measurement": "IC50", "setting": "[1]", "value": "126 µM and 154 µM and 148 µM"}, {"measurement": "IC50", "setting": "[1]; IC50 mean (BCRP), BCRP-mediated B-A transport of [3H]-estrone 3-sulfate (1 μM), Caco-2, mean (±SD) of occasions, IC50 equates to Ki", "value": 143, "unit": "µM"}, {"measurement": "IC50", "setting": "[2]; IC50, determined values from different occasions (OATP1B1), single occasion", "value": "12.4 µM and 7.89 µM and 8.29 µM"}, {"measurement": "IC50", "setting": "[2]; IC50 mean (OATP1B1), mean (±SD) of three occasions", "value": 9.53, "unit": "µM"}, {"measurement": "Inhibition of NTCP-mediated probe substrate transport, single concentration screen", "setting": "[3]", "value": "neither darunavir nor ritonavir when tested at a single concentration greater than or equal to ten times their [Iin max u] produced inhibition; also recorded: not an inhibitor"}, {"measurement": "[Ig] maximal enterocyte concentration", "setting": "[4]", "value": "73.0 ^b μM"}, {"measurement": "[Iin max] maximum hepatic inlet concentration", "setting": "[4]", "value": "24.2 ^b μM"}, {"measurement": "Cmax", "setting": "[5]; 600 mg, ref Kakuda et al.[36]", "value": 10.6, "unit": "µM"}, {"measurement": "Inhibition of OAT3, published", "setting": "[6]", "value": "no inhibition"}, {"measurement": "[Iin max u] unbound maximum hepatic inlet concentration", "setting": "[7]", "value": 1.21, "unit": "µM"}]}, {"compound": "C[C@]12CC[C@@H]3c4ccc(OS(=O)(=O)O)cc4CC[C@H]3[C@@H]1CCC2=O", "note": "[estrone 3‐sulfate, Estrone 3‐sulfate sodium salt]", "values": [{"measurement": "Km", "setting": "[8]", "value": 7.4, "unit": "µM"}]}, {"compound": "CCCN(CCC)S(=O)(=O)c1ccc(C(=O)O)cc1", "note": "[probenecid]", "values": [{"measurement": "inhibition at 3 min, 300 μM", "setting": "[9]", "value": 90.6, "unit": "%"}]}, {"compound": "CO[C@H]1/C=C/O[C@@]2(C)Oc3c(C)c(O)c4c(O)c(cc(O)c4c3C2=O)NC(=O)/C(C)=C\\C=C\\[C@H](C)[C@H](O)[C@@H](C)[C@@H](O)[C@@H](C)[C@H](OC(C)=O)[C@@H]1C", "note": "[rifamycin SV, rifamycin SV sodium salt]", "values": [{"measurement": "inhibition at 2 min, 100 μM", "setting": "[10]", "value": "96.5 ± 3.2", "unit": "%"}]}, {"compound": "CC(C)c1nc(CN(C)C(=O)N[C@H](C(=O)N[C@@H](Cc2ccccc2)C[C@H](O)[C@H](Cc2ccccc2)NC(=O)OCc2cncs2)C(C)C)cs1", "note": "[ritonavir]", "values": [{"measurement": "Inhibition of OAT3-mediated [3H]-estrone 3-sulfate transport, single concentration screen", "setting": "[11]", "value": "neither atazanavir, darunavir, lopinavir nor ritonavir inhibited OAT3 transport"}, {"measurement": "Cmax", "setting": "[5]; clinical dose of Table 5, ref Elsby et al.[1]", "value": 0.93, "unit": "µM"}, {"measurement": "[Ig] maximal enterocyte concentration", "setting": "[7]; (FaFg × ka × dose)/Qent", "value": "1.39 ^f μM"}, {"measurement": "[Iin max u] unbound maximum hepatic inlet concentration", "setting": "[7]", "value": 0.0131, "unit": "µM"}, {"measurement": "[Iin max] maximum hepatic inlet concentration", "setting": "[7]", "value": "1.19 ^f μM"}]}, {"compound": "CC(C)c1nc(N(C)S(C)(=O)=O)nc(-c2ccc(F)cc2)c1/C=C/[C@@H](O)C[C@@H](O)CC(=O)O", "note": "[rosuvastatin]", "values": [{"measurement": "OAT3 ƒe", "setting": "[12]; active renal secretion, ref [1]", "value": 0.25}, {"measurement": "OATP1B1 ƒe", "setting": "[12]; hepatic uptake, ref [1]", "value": 0.38}, {"measurement": "fraction absorbed", "setting": "[12]; intestinal BCRP efflux as barrier to absorption, ref [1]", "value": 0.5}, {"measurement": "BCRP ƒe", "setting": "[12]; intestinal BCRP efflux, ref [1]", "value": 0.5}, {"measurement": "NTCP ƒe", "setting": "[12]; ref [13]", "value": 0.21}, {"measurement": "OATP1B3 ƒe", "setting": "[12]; ref [13]", "value": 0.11}, {"measurement": "overall hepatic elimination ƒe", "setting": "[12]; ref [13]", "value": 0.7}]}]}
